This note sets out measurements from US20260335294A1, “TREATING CONGENITAL DISORDERS OF GLYCOSYLATION” (Mayo Foundation for Medical Education and Research, priority 2022, published 2026).

The test system of one data set is pmm2 mutant zebrafish. The experiment in a line: Viability of treated zebrafish. The format is in vivo.
The subject of data set [1] is PMM2-CDG patients. The experiment in a line: Urine polyols (sorbitol, mannitol) in patients on epalrestat. The class given is in vivo, human. The following applies: for Urine Sorbitol: normal <5; for Urine Mannitol: normal < 20. From the text:
The primary objective of the study was to assess the efficacy and safety of epalrestat treatment in 3 PMM2-CDG pediatric subjects prior to a planned Phase III clinical trial (Oral epalrestat therapy in Pediatric Subjects with PMM2-CDG, NCT04925960). The secondary objective was to assess the ability of epalrestat to improve clinically relevant aspects of PMM2-CDG such as increased urine polyols (sorbitol, mannitol), abnormal glycosylation (carbohydrate deficient transferrin), abnormal coagulation (ATIII=antithrombin III), impaired liver function (ALT=Alanine Transaminase, AST=Aspartate Transaminase), neurologic function (Brief Ataxia Rating Scale=BARS), severity of phenotype (Nijmegen Pediatric CDG Rating Scale=NPCRS). The ability of epalrestat to inhibit polyol production was monitored by evaluating urine polyol levels (sorbitol, mannitol), which are elevated in PMM2-CDG. Next, carbohydrate deficient transferrin, which is abnormal in PMM2-CDG, was evaluated in order to assess improvement of glycosylation following epalrestat treatment. CDT mono-oligo/dioligo ratio and a-oligo/dioligo ratio are used to evaluate glycosylation abnormalities. Transferrin normally occurs with two glycan chains (di-oligo). In the case of glycosylation abnormalities, glycan chains are missing (A-oligo transferrin has no glycan chains, mono-oligo has one glycan chain, di-oligo has two glycan chains). The higher ratio of a-oligo/di-oligo and mono-oligo/di-oligo indicate glycosylation abnormalities are present. Therefore, improvement in a-oligo/di-oligo and mono-oligo/di-oligo ratios can be used to monitor improvement or worsening of glycosylation status. Changes in the liver enzymes AST, ALT, which are frequently elevated in PMM2-CDG, were monitored both as part of a safety study and as part of monitoring clinical improvement in coagulation. Neurologic improvement was assessed by modified BARS scores in 2 patients (3rd patient was not eligible for the test due to age at the start of the trial). NPCRS was assessed at every visit to assess changes in the severity of the patients' phenotype. Additionally, the frequency of adverse events, changes in vital signs, complete blood count, and changes in BMI were monitored.
Two patients were started on epalrestat on single patient investigational new drug (IND) (P5 IRB: 19-010017; IND #145262; P6 Protocol PMM2-CDG-001/A). Epalrestat was initiated on the parents' own initiative in the third patient (P7). Two patients were in their second year of epalrestat treatment, while the third, was in the 3rd year of treatment. Physical, neurological, and biochemical examinations were performed in 3 PMM2-CDG patients at baseline, and at every three months after the start of the epalrestat treatment. Patients underwent NPCRS phenotype severity assessment and biological sampling at every visit. Epalrestat (Ono Pharmaceuticals, Osaka, Japan) was taken orally 3 times per day (TID) before meals in a divided dose, with dosage escalation throughout the treatment. The pharmacological profile of epalrestat was as described elsewhere (Ligezka et al, Ann. Neurol., 90(6):887-900 (2021)). The starting dosage in P5 and P6 was 0.8 mg/kg/day, while P7 was started on 0.5 mg/kg/day due to their young age. P7 dosage was increased to 0.8 mg/day after a month, once safety was established. Blood and urine samples were collected routinely. Urine polyols, carbohydrate deficient transferrin (CDT), anti-thrombin III (ATIII), liver enzymes (ALT, AST), and complete blood count (CBC) were performed. Modified Brief Ataxia Rating Scale was used to assess ataxia in the 2 patients (P5, P6; P7 was not eligible for the test due to age). The modified BARS scale included Archimedes spiral test, but not the abnormalities of the ocular pursuit system and the scale range was 0-54. Goal attainment scale (GAS) was administered as described per study protocol (ClinicalTrials.gov Identifier: NCT04199000). […]

Data set [2] has as its system PMM2-CDG patients. The experiment in a line: Safety and tolerability of epalrestat in pediatric patients. The class given is in vivo, human. The method, then: The primary objective of the study was to assess the efficacy and safety of epalrestat treatment in 3 PMM2-CDG pediatric subjects prior to a planned Phase III clinical trial (Oral epalrestat therapy in Pediatric Subjects with PMM2-CDG, NCT04925960). […] The ability of epalrestat to inhibit polyol production was monitored by evaluating urine polyol levels (sorbitol, mannitol), which are elevated in PMM2-CDG. Next, carbohydrate deficient transferrin, which is abnormal in PMM2-CDG, was evaluated in order to assess improvement of glycosylation following epalrestat treatment. […] Changes in the liver enzymes AST, ALT, which are frequently elevated in PMM2-CDG, were monitored both as part of a safety study and as part of monitoring clinical improvement in coagulation. Neurologic improvement was assessed by modified BARS scores in 2 patients (3rd patient was not eligible for the test due to age at the start of the trial). NPCRS was assessed at every visit to assess changes in the severity of the patients' phenotype. Additionally, the frequency of adverse events, changes in vital signs, complete blood count, and changes in BMI were monitored. […]

Data set [3] deals with PMM2-CDG patients. The experiment in a line: Clinical observation of lower body strength and speech. The class given is in vivo, human. The following applies: P7. The method, then: Two patients were started on epalrestat on single patient investigational new drug (IND) (P5 IRB: 19-010017; IND #145262; P6 Protocol PMM2-CDG-001/A). Epalrestat was initiated on the parents' own initiative in the third patient (P7). Two patients were in their second year of epalrestat treatment, while the third, was in the 3rd year of treatment. Physical, neurological, and biochemical examinations were performed in 3 PMM2-CDG patients at baseline, and at every three months after the start of the epalrestat treatment. Patients underwent NPCRS phenotype severity assessment and biological sampling at every visit. Epalrestat (Ono Pharmaceuticals, Osaka, Japan) was taken orally 3 times per day (TID) before meals in a divided dose, with dosage escalation throughout the treatment. The pharmacological profile of epalrestat was as described elsewhere (Ligezka et al, Ann. Neurol., 90(6):887-900 (2021)). The starting dosage in P5 and P6 was 0.8 mg/kg/day, while P7 was started on 0.5 mg/kg/day due to their young age. P7 dosage was increased to 0.8 mg/day after a month, once safety was established. […] Quantification of goal attainment levels is done on a 5-point scale ranging from −2 to +2, with 0 indicating the expected level of goal attainment. Three individual goals were established by each patient (parent) at baseline and the progress was annually assessed. […]

[4] abbreviates: P6, Baseline column: first available results 3 months after starting treatment, 0.8 mg/kg day.

Structures are written as SMILES. Marks after values point to notes of the source that are not given here.

`CC(/C=C1\SC(=S)N(CC(=O)O)C1=O)=C\c1ccccc1` [epalrestat]: the “viability, treated vs untreated” value with pmm2 mutant zebrafish is listed as “no significant difference”. Further, the “Urine Sorbitol” value with PMM2-CDG patients [1] (P5, 12 months, 1.5 mg/kg day, baseline 19.9) is 10.7 mmol/mol Cr; in the data set with PMM2-CDG patients [1] (P5, 24 months, 2 mg/kg day, baseline 19.9), 7.5 mmol/mol Cr; in the data set with PMM2-CDG patients [1] (P5, 28 months, 3 mg/kg day, baseline 19.9), 7.86 mmol/mol Cr; in the data set with PMM2-CDG patients [1] (P6, 12 months, 1.5 mg/kg day) it was 12.81 mmol/mol Cr; with PMM2-CDG patients [1] (P6, 18 months, 3 mg/kg day), 9 mmol/mol Cr; in the data set with PMM2-CDG patients [1] (setting [4]), 50.80# mmol/mol Cr. The “Urine Sorbitol” value in the data set on PMM2-CDG patients [1] (P7, 12 months, 1.5 mg/kg day, baseline 9.85) turned out to be 0.03 mmol/mol Cr. Also, the “Urine Mannitol” value in the data set on PMM2-CDG patients [1] (P5, 12 months, 1.5 mg/kg day, baseline 648.6) was 32.6 mmol/mol Cr; in the data set with PMM2-CDG patients [1] (P5, 24 months, 2 mg/kg day, baseline 648.6) it was 45.3 mmol/mol Cr; in the data set with PMM2-CDG patients [1] (P5, 28 months, 3 mg/kg day, baseline 648.6) it was 93.19 mmol/mol Cr; in the data set on PMM2-CDG patients [1] (P6, 12 months, 1.5 mg/kg day) it was 14.77 mmol/mol Cr; in the data set with PMM2-CDG patients [1] (P6, 18 months, 3 mg/kg day), 47 mmol/mol Cr; in the data set with PMM2-CDG patients [1] (setting [4]), 23.90# mmol/mol Cr. For the same compound, the “Urine Mannitol” value in the data set with PMM2-CDG patients [1] (P7, 12 months, 1.5 mg/kg day, baseline 10.37) is on record as 1.89 mmol/mol Cr. For the same compound, in the data set with PMM2-CDG patients [1] (P5, underwent a fructose loading test), the “urine mannitol during treatment” value is “A fluctuation in mannitol”. Further, the urine polyol levels entry in the data set with PMM2-CDG patients [1] (P5-P7, words) is “decreased”. For the same compound, the “urine polyol levels during treatment” value in the data set with PMM2-CDG patients [1] (P5-P7, words) is listed as “remained mostly stable”. Moreover, the “tolerability of escalating doses” value with PMM2-CDG patients [2] (three pediatric patients P5-7) is given as “well-tolerated”. Further, in the data set on PMM2-CDG patients [2] (three pediatric patients P5-7, oral TID, long-term), the side-effects entry was “No side-effects were observed”. In the data set on PMM2-CDG patients [3], the “lower body strength and speech” value was “improvement in lower body strength and speech”.
